From patent publication US9540389B2, “Antimicrobial potentiators” (priority 2013, dated 2017)
Where two headings read alike, the source gives them in different places.

Experiments:
[1] = tested on: Escherichia coli AB1157 (WT); assay: Checkerboard MIC assay (antibacterial agent + MBX2319); assay type: cell-based; conditions: for MIC: Escherichia coli
Source text: (§1) • Strains and Reagents. The following strains were obtained from the Keio collection (Baba, et al.: Construction of Escherichia coli K-12 in-frame, single-gene knockout mutants: the Keio collection. In Mol Syst Biol, vol. 2, pp. 2006 0008, (2006)): JW0451 (ΔacrB::kan), JW5503 (ΔtolC::kan), JW3234 (ΔacrF::kan), JW2661 (ΔemrB::kan), JW0863 (ΔmacB::kan). The deletion mutations in each of these strains were transferred to AB1157 using P1 phage transduction (see Table 1). The construction of the E. coli cell-based reporter strain (SOS-XXX) that was used for high throughput screening is described in detail in the supplementary information. […] Irgasan was a generous gift from Ciba Speciality Chemicals, Inc. (High Point, N.C.). Hoechst 33342 (H33342) was purchased from Molecular Probes (Eugene, Oreg.). […] Luria Broth (Miller) and agar were purchased as prepared dehydrated media from Becton Dickenson (Franklin Lakes, N.J.). The compound libraries used in high-throughput screens were purchased from Chembridge (San Diego, Calif.), ChemDiv (San Diego, Calif.), and TimTec (Newark, Del.). MBX2319 was synthesized by Microbiotix, Inc. • Antibacterial Activity Assays. The minimal inhibitory concentration (MIC) of antibacterial agents and biocides were determined using the microbroth dilution method essentially as described in the CLSI protocol M7-A7 (CLSI: Method for dilution antimicrobial susceptibility testing for bacteria that grow aerobically; Approved standard-document M7-A7. In Clinical and Laboratory Standards Institute document M7-A7, Clinical and Laboratory Standards Institute, Wayne, Pa., (2006)), with the following exceptions. LB media was used instead of MHB. […] The final concentration of DMSO in each assay was 2%. […] MIC assays were performed in triplicate and the geometric mean was calculated. Checkerboard MIC assays using an EPI and an antibacterial agent were performed essentially as described (Pillai, et al.: Antimicrobial Combinations. In Antibiotics in Laboratory Medicine, ed. by V. Lorian, pp. 365-440, Lippincott Williams & Wilkins, Philadelphia, Pa., (2005)), with the same modifications used for the MIC assays described above. • Time-Kill Assays. Killing curve assays were performed essentially as described (Pillai, et al.: Antimicrobial Combinations. In Antibiotics in Laboratory Medicine, ed. by V. Lorian, pp. 365-440, Lippincott Williams & Wilkins, Philadelphia, Pa., (2005)). Exponential bacterial cultures grown in LB were diluted to a cell density of ˜1×10^7 in LB followed by addition of CIP and/or an EPI. Viability was monitored over 2-4 hours by making serial dilutions in saline and spotting 5 μl of each dilution onto the surface of an LB agar plate in triplicate. Colonies were counted after the plates were incubated at 37° C. for 16-18 hr, colony forming units (CFU) per ml were calculated, and the average and standard deviation for the three replicates was determined. For treatments that decreased CFU/ml below the limit of detection for the spot plating method, the 100 μl samples were diluted into 5 ml LB top agar, were poured onto LB agar plates, and incubated for 18 hr at 37° C. To calculate the fraction of the control for each sample, the average CFU/ml values for treated samples were divided by those from the same sample at 0 h (time=0). Each experiment was repeated at least three times, and a representative experiment is shown. • H33342 Accumulation Assay. The rate of accumulation of the fluorescent dye Hoechst 33342 (H33342), which is a substrate of a wide variety of bacterial efflux pumps (van den Berg van Saparoea, et al., Biochemistry, vol. 44, pp. 16931-16938, (2005)), can be used to estimate the activity of the major efflux pumps in E. coli and many other bacterial species. The H33342 accumulation assay was used to evaluate the effect of EPIs on the activity of the AcrAB-TolC efflux pump in several bacterial species essentially as described (Coldham, et al., J Antimicrob Chemother, vol. 65, pp. 1655-1663, (2010)). […]

[2] = tested on: Escherichia coli AB1157 ΔacrB; assay: as above; assay type: cell-based; conditions: for MIC: Escherichia coli
Source text: as §1

[3] = tested on: Escherichia coli AB1157 ΔacrF; assay: as above; assay type: cell-based; conditions: for MIC: Escherichia coli
Source text: as §1

[4] = tested on: Escherichia coli AB1157 ΔtolC; assay: as above; assay type: cell-based; conditions: for MIC: Escherichia coli
Source text: as §1

[5] = tested on: Escherichia coli 285 (AB1157, CIPR, overexpresses efflux); assay: microbe, parasite or virus in culture; assay type: cell-based; conditions: for MIC: Escherichia coli
Source text: as §1

[6] = tested on: Escherichia coli 287 (AB1157, CIPR, overexpresses efflux); assay: microbe, parasite or virus in culture; assay type: cell-based; conditions: for MIC: Escherichia coli
Source text: as §1

[7] = target: T1, AcrAB-TolC efflux pump (Escherichia coli, UniProt P31224); assay: H33342 accumulation assay; assay type: cell-based; parameters: endogenous in cells; host or cells: E. coli 331 (fluoroquinolone-resistant); conditions: E. coli 331 (CIPR); 25 μM
T1 sequence (P31224 whole entry): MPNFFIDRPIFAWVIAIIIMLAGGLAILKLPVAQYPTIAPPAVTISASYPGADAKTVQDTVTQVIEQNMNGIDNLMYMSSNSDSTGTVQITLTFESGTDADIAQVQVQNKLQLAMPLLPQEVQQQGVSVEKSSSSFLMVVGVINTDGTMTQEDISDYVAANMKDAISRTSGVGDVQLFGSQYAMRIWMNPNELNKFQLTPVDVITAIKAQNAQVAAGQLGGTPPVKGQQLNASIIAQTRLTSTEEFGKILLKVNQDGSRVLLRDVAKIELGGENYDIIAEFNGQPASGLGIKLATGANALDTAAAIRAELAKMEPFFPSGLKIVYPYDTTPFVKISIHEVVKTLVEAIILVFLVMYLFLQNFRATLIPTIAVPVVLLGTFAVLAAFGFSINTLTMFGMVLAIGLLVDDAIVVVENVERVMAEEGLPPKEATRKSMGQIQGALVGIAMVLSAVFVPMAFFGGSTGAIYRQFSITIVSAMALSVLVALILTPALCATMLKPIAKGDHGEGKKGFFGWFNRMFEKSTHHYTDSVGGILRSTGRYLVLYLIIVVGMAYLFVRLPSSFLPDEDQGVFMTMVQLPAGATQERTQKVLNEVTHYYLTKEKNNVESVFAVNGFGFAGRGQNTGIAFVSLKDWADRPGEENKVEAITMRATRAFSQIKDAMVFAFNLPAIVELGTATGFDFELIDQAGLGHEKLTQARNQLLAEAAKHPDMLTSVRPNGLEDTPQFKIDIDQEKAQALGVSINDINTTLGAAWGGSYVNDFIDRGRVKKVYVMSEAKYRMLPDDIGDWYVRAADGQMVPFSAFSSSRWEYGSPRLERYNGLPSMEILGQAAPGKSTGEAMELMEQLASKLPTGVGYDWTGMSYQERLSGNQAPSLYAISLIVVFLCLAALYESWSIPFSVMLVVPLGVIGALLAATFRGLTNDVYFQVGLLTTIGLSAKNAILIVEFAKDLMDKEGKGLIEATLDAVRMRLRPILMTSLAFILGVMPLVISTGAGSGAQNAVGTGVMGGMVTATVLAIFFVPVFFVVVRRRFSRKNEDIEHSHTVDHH
T1 sequence (P0AE06 25-397, further chain): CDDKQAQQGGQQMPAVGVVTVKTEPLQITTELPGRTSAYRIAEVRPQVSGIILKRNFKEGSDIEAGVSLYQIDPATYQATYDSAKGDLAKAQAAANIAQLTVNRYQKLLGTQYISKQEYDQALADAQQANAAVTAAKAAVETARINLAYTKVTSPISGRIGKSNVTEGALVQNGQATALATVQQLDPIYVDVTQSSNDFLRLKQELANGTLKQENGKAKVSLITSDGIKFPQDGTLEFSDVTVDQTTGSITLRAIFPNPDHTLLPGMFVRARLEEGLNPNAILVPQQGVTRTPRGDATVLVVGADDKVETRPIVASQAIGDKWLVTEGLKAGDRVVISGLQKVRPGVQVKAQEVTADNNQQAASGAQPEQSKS
T1 sequence (P02930 23-493, further chain): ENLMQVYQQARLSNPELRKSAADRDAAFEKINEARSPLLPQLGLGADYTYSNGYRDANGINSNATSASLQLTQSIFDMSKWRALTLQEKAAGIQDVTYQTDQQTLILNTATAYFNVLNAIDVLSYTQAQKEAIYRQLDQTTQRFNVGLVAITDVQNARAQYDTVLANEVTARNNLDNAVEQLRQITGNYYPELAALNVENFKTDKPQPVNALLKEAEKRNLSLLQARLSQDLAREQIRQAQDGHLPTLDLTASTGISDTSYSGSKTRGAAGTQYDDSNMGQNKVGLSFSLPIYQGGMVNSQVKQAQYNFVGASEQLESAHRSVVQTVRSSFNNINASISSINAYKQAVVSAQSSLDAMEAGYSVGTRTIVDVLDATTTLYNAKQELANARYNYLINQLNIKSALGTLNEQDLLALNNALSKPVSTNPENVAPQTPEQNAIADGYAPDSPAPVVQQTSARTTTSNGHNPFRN

[8] = target: T1, AcrAB-TolC efflux pump; assay: H33342 accumulation assay; assay type: cell-based, Escherichia coli 285; parameters: endogenous in cells; host or cells: E. coli strains 285 and 287 (ciprofloxacin-resistant mutants of AB1157); conditions: hyper-efflux strain 285
[9] = tested on: P. aeruginosa ATCC 27853; assay: MIC assay (microbroth dilution) ± 25 μM EPI; assay type: cell-based, Pseudomonas aeruginosa
Source text: as §1

[10] = read-out: MIC (μg/ml) with MBX2319 at concn (μM) of: 0

## CC1(C)Cc2c(C#N)c(SCCc3ccccc3)nc(N3CCOCC3)c2CO1 [MBX2319]
[1]; MBX2319 alone, strain WT, read-out: MIC (μM) MBX2319
  MIC: ≥ 100 µM
[1]; checkerboard, E. coli AB1157, ciprofloxacin
  decrease of the MIC of CIP by MBX2319: 2 fold
[1]; checkerboard, E. coli AB1157, levofloxacin
  decrease of the MIC of LEV by MBX2319: 4 fold
[1]; checkerboard, E. coli AB1157, piperacillin
  decrease of the MIC of PIP by MBX2319: 8 fold
[2]; read-out: MIC (μM) MBX2319
  MIC: ≥ 100 µM
[3]; read-out: MIC (μM) MBX2319
  MIC: ≥ 100 µM
[4]; read-out: MIC (μM) MBX2319
  MIC: ≥ 100 µM
[5]; E. coli strain 285
  potentiation of the antibacterial activity of CIP, LEV, and PIP: 4-8 fold
[5]; read-out: MIC (μM) MBX2319
  MIC: ≥ 100 µM
[6]; E. coli strain 287
  potentiation of the antibacterial activity of CIP, LEV, and PIP: 4-8 fold
[6]; read-out: MIC (μM) MBX2319
  MIC: ≥ 100 µM
[7]
  H33342 accumulation: weak activity
[8]
  H33342 accumulation: increased H33342 accumulation

## CCN1CCN(C(=O)N[C@@H](C(=O)N[C@@H]2C(=O)N3[C@@H]2SC(C)(C)[C@@H]3C(=O)O)c2ccccc2)C(=O)C1=O [Piperacillin, piperacillin]
[1]; WT, MBX2319 0 μM, read-out: MIC (μg/ml) with MBX2319 at concn (μM) of: 0
  MIC: 4 µg/mL
[1]; WT, MBX2319 1.56 μM
  MIC (μg/ml) with MBX2319 at concn (μM) of: 1.56: 2 µg/mL
[1]; WT, MBX2319 3.13 μM
  MIC (μg/ml) with MBX2319 at concn (μM) of: 3.13: 1 µg/mL
[1]; WT, MBX2319 6.25 μM
  MIC (μg/ml) with MBX2319 at concn (μM) of: 6.25: 1 µg/mL
[1]; WT, MBX2319 25 μM
  MIC (μg/ml) with MBX2319 at concn (μM) of: 25: 0.5 µg/mL
[1]; WT, MBX2319 50 μM
  MIC (μg/ml) with MBX2319 at concn (μM) of: 50: 0.5 µg/mL
[1]; WT, MBX2319 […]
  MIC (μg/ml) with MBX2319 at concn (μM) of: 12.5: 0.5 µg/mL
[1]; WT, MIC (WT)/MIC (mutant) in the absence of EPI
  MIC ratios mutant: 1
[1]; WT, highest ratio of MIC (no compound)/MIC (MBX2319)
  MIC ratios 2319: 8
[2]; [10]
  MIC: 0.25 µg/mL
[2]; ΔacrB, MBX2319 1.56 μM
  MIC (μg/ml) with MBX2319 at concn (μM) of: 1.56: 0.125 µg/mL
[2]; ΔacrB, MBX2319 3.13 μM
  MIC (μg/ml) with MBX2319 at concn (μM) of: 3.13: 0.125 µg/mL
[2]; ΔacrB, MBX2319 6.25 μM
  MIC (μg/ml) with MBX2319 at concn (μM) of: 6.25: 0.125 µg/mL
[2]; ΔacrB, MBX2319 25 μM
  MIC (μg/ml) with MBX2319 at concn (μM) of: 25: 0.125 µg/mL
[2]; ΔacrB, MBX2319 50 μM
  MIC (μg/ml) with MBX2319 at concn (μM) of: 50: 0.125 µg/mL
[2]; ΔacrB, MBX2319 […]
  MIC (μg/ml) with MBX2319 at concn (μM) of: 12.5: 0.125 µg/mL
[2]; ΔacrB, MIC (WT)/MIC (mutant) in the absence of EPI
  MIC ratios mutant: 16
[2]; ΔacrB, highest ratio of MIC (no compound)/MIC (MBX2319)
  MIC ratios 2319: 2
[3]; [10]
  MIC: 4 µg/mL
[3]; ΔacrF, MBX2319 1.56 μM
  MIC (μg/ml) with MBX2319 at concn (μM) of: 1.56: 2 µg/mL
[3]; ΔacrF, MBX2319 3.13 μM
  MIC (μg/ml) with MBX2319 at concn (μM) of: 3.13: 1 µg/mL
[3]; ΔacrF, MBX2319 6.25 μM
  MIC (μg/ml) with MBX2319 at concn (μM) of: 6.25: 0.5 µg/mL
[3]; ΔacrF, MBX2319 25 μM
  MIC (μg/ml) with MBX2319 at concn (μM) of: 25: 0.5 µg/mL
[3]; ΔacrF, MBX2319 50 μM
  MIC (μg/ml) with MBX2319 at concn (μM) of: 50: 0.5 µg/mL
[3]; ΔacrF, MBX2319 […]
  MIC (μg/ml) with MBX2319 at concn (μM) of: 12.5: 0.5 µg/mL
[3]; ΔacrF, MIC (WT)/MIC (mutant) in the absence of EPI
  MIC ratios mutant: 1
[3]; ΔacrF, highest ratio of MIC (no compound)/MIC (MBX2319)
  MIC ratios 2319: 8
[4]; [10]
  MIC: 0.125 µg/mL
[4]; ΔtolC, MBX2319 1.56 μM
  MIC (μg/ml) with MBX2319 at concn (μM) of: 1.56: 0.125 µg/mL
[4]; ΔtolC, MBX2319 3.13 μM
  MIC (μg/ml) with MBX2319 at concn (μM) of: 3.13: 0.125 µg/mL
[4]; ΔtolC, MBX2319 6.25 μM
  MIC (μg/ml) with MBX2319 at concn (μM) of: 6.25: 0.125 µg/mL
[4]; ΔtolC, MBX2319 25 μM
  MIC (μg/ml) with MBX2319 at concn (μM) of: 25: 0.125 µg/mL
[4]; ΔtolC, MBX2319 50 μM
  MIC (μg/ml) with MBX2319 at concn (μM) of: 50: 0.125 µg/mL
[4]; ΔtolC, MBX2319 […]
  MIC (μg/ml) with MBX2319 at concn (μM) of: 12.5: 0.125 µg/mL
[4]; ΔtolC, MIC (WT)/MIC (mutant) in the absence of EPI
  MIC ratios mutant: 32
[4]; ΔtolC, highest ratio of MIC (no compound)/MIC (MBX2319)
  MIC ratios 2319: 1
[5]; 285, MBX2319 1.56 μM
  MIC (μg/ml) with MBX2319 at concn (μM) of: 1.56: 4 µg/mL
[5]; 285, MBX2319 3.13 μM
  MIC (μg/ml) with MBX2319 at concn (μM) of: 3.13: 2 µg/mL
[5]; 285, MBX2319 6.25 μM
  MIC (μg/ml) with MBX2319 at concn (μM) of: 6.25: 2 µg/mL
[5]; 285, MBX2319 25 μM
  MIC (μg/ml) with MBX2319 at concn (μM) of: 25: 2 µg/mL
[5]; 285, MBX2319 50 μM
  MIC (μg/ml) with MBX2319 at concn (μM) of: 50: 2 µg/mL
[5]; 285, MBX2319 […]
  MIC (μg/ml) with MBX2319 at concn (μM) of: 12.5: 2 µg/mL
[5]; 285, MIC (WT)/MIC (mutant) in the absence of EPI
  MIC ratios mutant: 0.5
[5]; 285, highest ratio of MIC (no compound)/MIC (MBX2319)
  MIC ratios 2319: 4
[5]; [10]
  MIC: 8 µg/mL
[6]; 287, MBX2319 1.56 μM
  MIC (μg/ml) with MBX2319 at concn (μM) of: 1.56: 8 µg/mL
[6]; 287, MBX2319 3.13 μM
  MIC (μg/ml) with MBX2319 at concn (μM) of: 3.13: 4 µg/mL
[6]; 287, MBX2319 6.25 μM
  MIC (μg/ml) with MBX2319 at concn (μM) of: 6.25: 4 µg/mL
[6]; 287, MBX2319 25 μM
  MIC (μg/ml) with MBX2319 at concn (μM) of: 25: 2 µg/mL
[6]; 287, MBX2319 50 μM
  MIC (μg/ml) with MBX2319 at concn (μM) of: 50: 2 µg/mL
[6]; 287, MBX2319 […]
  MIC (μg/ml) with MBX2319 at concn (μM) of: 12.5: 2 µg/mL
[6]; 287, MIC (WT)/MIC (mutant) in the absence of EPI
  MIC ratios mutant: 0.25
[6]; 287, highest ratio of MIC (no compound)/MIC (MBX2319)
  MIC ratios 2319: 8
[6]; [10]
  MIC: 16 µg/mL
[9]; + 25 μM MBX2319
  MIC (μg/ml) ± EPI: MBX2319: 19 µg/mL
[9]; + 25 μM PAβN
  MIC (μg/ml) ± EPI: PAβN: 19 µg/mL
[9]; MIC no cmpd/MIC + 25 μM MBX2319
  MIC Ratio MBX2319: 0.84
[9]; MIC no cmpd/MIC + 25 μM PAβN
  MIC Ratio PAβN: 0.8
[9]; Pseudomonas aeruginosa, ATCC27853, no EPI, read-out: MIC (μg/ml) ± EPI: None
  MIC: 16 µg/mL
